Target: T1, Hsp110 (Homo sapiens, UniProt Q92598)
T1 construct: gene HSPH1; purified recombinant human Hsp110 (His6-SUMO tag cleaved)
Experiment: luciferase anti-aggregation assay with purified Hsp110 at […] (single concentration)
Type: biochemical
Details: read-out: % reduction of anti-aggregating activity at 100 μM

T1 sequence (Q92598 whole entry): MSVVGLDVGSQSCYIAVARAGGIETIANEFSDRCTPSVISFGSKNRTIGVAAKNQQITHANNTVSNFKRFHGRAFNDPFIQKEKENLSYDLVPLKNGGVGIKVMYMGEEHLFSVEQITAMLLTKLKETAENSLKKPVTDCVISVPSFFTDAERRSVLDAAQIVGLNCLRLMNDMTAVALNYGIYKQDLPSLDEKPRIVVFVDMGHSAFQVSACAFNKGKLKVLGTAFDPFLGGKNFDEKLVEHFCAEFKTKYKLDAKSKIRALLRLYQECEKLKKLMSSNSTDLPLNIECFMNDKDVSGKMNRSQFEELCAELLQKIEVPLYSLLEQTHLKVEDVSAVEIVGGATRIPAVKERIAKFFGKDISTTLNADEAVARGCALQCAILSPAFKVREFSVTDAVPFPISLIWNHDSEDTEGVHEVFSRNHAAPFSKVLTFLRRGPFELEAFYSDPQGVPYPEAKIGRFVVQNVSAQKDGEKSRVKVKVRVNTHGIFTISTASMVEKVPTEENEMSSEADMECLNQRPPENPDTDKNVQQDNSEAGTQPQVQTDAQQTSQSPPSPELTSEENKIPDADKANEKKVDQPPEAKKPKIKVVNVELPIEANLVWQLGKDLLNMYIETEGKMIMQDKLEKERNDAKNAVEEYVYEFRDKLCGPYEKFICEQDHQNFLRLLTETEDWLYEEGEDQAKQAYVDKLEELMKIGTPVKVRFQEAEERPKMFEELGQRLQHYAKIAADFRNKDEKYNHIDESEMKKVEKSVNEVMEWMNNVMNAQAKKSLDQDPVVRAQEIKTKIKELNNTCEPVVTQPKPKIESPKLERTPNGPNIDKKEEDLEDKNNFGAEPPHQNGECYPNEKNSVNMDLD

Row | inhibition at 100 µM | SMILES
1 | > 50% | Cc1ccccc1COc1nc2c(cc1-c1nc(N)cc(N)n1)c(C)nn2-c1ccccc1 [compound 5]
2 | > 50% | Cc1nn(-c2ccccc2)c2nc(OCc3cnc(Cl)s3)c(-c3nc(N)cc(N)n3)cc12 [compound 8]

— publication PMC10655391, “Inhibition of Hsp110-STAT3 interaction in endothelial cells alleviates vascular remodeling in hypoxic pulmonary arterial Hypertension model” (Respiratory Research, 2023)
